Test results taken from article PMC9608490, “Design, Synthesis, Crystal Structure, In Vitro and In Silico Evaluation of New N′-Benzylidene-4-tert-butylbenzohydrazide Derivatives as Potent Urease Inhibitors” (Molecules, 2022).

Molecular target: Jack bean urease (Canavalia ensiformis, UniProt P07374)
Test: In vitro urease inhibition assay
Assay type: biochemical
Experimental: The measurement of urease inhibitory activity was carried out according to the literature method. The assay mixture containing 75 μL of Jack bean urease and 75 μL of tested compounds with various concentrations (dissolved in DMSO) was pre-incubated for 15 min on a 96-well assay plate. Acetohydroxamic acid was used as a reference. Then 75 μL of phosphate buffer at pH 6.8 containing phenol red (0.18 mmol·L^−1) and urea (400 mmol·L^−1) were added and incubated at room temperature. The reaction time required for enough ammonium carbonate to form to raise the pH phosphate buffer from 6.8 to 7.7 was measured by a microplate reader (560 nm), with the end-point being determined by the color change of the phenol-red indicator.

Sequence of Jack bean urease (P07374 whole entry, looked up): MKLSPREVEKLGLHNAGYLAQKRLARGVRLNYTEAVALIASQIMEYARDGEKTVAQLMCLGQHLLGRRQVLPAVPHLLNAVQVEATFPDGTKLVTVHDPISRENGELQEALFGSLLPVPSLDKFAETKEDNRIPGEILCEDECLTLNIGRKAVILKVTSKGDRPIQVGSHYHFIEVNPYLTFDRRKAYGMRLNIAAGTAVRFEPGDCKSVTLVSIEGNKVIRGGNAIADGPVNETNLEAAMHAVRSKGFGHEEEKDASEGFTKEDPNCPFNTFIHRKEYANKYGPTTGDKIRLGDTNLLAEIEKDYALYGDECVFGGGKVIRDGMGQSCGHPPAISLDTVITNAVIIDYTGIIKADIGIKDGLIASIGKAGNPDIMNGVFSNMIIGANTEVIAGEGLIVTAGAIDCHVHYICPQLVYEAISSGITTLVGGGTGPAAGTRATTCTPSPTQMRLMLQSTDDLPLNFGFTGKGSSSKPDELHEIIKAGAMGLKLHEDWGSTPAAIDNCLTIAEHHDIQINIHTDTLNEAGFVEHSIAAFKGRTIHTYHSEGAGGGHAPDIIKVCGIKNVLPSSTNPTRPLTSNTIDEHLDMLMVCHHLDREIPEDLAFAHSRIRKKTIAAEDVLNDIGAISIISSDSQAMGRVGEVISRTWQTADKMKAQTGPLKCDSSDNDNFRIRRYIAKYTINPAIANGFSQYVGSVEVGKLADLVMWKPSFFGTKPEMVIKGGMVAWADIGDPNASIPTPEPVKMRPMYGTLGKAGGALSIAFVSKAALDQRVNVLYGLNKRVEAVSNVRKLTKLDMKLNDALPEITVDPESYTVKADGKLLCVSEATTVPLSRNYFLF

How did the IC50 turn out when `CC(C)(C)c1ccc(C(=O)N/N=C/c2ccccc2O)cc1` [Compound 24, 4-(t-But)-N′-(2-Hydroxybenzylidene)benzohydrazide] was run?
Its IC50 is 37.5 ± 12.5 µM.

`CC(C)(C)c1ccc(C(=O)NN=Cc2ccc([N+](=O)[O-])cc2)cc1` [Compound 18, N′-(4-Nitrobenzylidene)-4-tert-butylbenzohydrazide] was tested. Which IC50 did it give?
The IC50 was 66.1 ± 1.79 µM.

Which IC50 does the source give for `CC(C)(C)c1ccc(C(=O)N/N=C/c2ccc(O)cc2)cc1` [Compound 20, 4-(t-But)-N′-(4-Hydroxybenzylidene)benzohydrazide] here?
The IC50 was 51.4 ± 11.5 µM.

Which IC50 does the source give for `CC(C)(C)c1ccc(C(=O)NN=Cc2cc(Cl)cc(Cl)c2O)cc1` [Compound 17, N′-(3,5-Dichloro-2-hydroxybenzylidene)-4-tert-butylbenzohydrazide] here?
Its IC50 is 27.5 ± 1.65 µM.

How did the IC50 turn out when `COc1cccc(OC)c1C=NNC(=O)c1ccc(C(C)(C)C)cc1` [Compound 19, 4-(Tert-butyl)-N′-(2,6-dimethoxybenzylidene)benzohydrazide] was run?
Its IC50 is 67.5 ± 4.16 µM.

Which IC50 does the source give for `COc1cc(C=NNC(=O)c2ccc(C(C)(C)C)cc2)ccc1F` [Compound 4, 4-(Tert-butyl)-N′-(4-fluoro-3-methoxybenzylidene)benzohydrazide] here?
Its IC50 is 88.8 ± 7.71 µM.

How did the IC50 turn out when `CC(C)(C)c1ccc(C(=O)NN=Cc2ccc(Cl)cc2Cl)cc1` [Compound 15, 4-(Tert-butyl)-N′-(2,4-dichlorobenzylidene)benzohydrazide] was run?
The IC50 was 82.2 ± 7.43 µM.

Which IC50 does the source give for `COc1cc(OC)c(C=NNC(=O)c2ccc(C(C)(C)C)cc2)c(OC)c1` [Compound 21, N′-(2,4,6-Trimethoxybenzylidene)-4-tert-butylbenzohydrazide] here?
The IC50 was 71.3 ± 2.47 µM.

With `CC(C)(C)c1ccc(C(=O)NN=Cc2cccc(O)c2)cc1` [Compound 12, 4-(Tert-butyl)-N′-(3-hydroxybenzylidene)benzohydrazide] as the compound, how does the IC50 read?
Its IC50 is 39.6 ± 11.5 µM.

Which IC50 does the source give for `CC(C)(C)c1ccc(C(=O)NN=Cc2cc([N+](=O)[O-])ccc2Cl)cc1` [Compound 10, 4-(Tert-butyl)-N′-(2-chloro-5-nitrobenzylidene)benzohydrazide] here?
The IC50 was 63.5 ± 3.97 µM.

How did the IC50 turn out when `COc1ccc(/C=N/NC(=O)c2ccc(C(C)(C)C)cc2)cc1OC` [Compound 25, 4-(t-But)-N′-(3,4-Dimethoxybenzylidene)benzohydrazide] was run?
The IC50 was 13.4 ± 0.33 µM.

Which IC50 does the source give for `COc1cccc(/C=N/NC(=O)c2ccc(C(C)(C)C)cc2)c1O` [Compound 5, 4-(t-But)-N′-(2-Hydroxy-3-methoxybenzylidene)benzohydrazide] here?
Its IC50 is 56.6 ± 3.18 µM.

How did the IC50 turn out when `CC(C)(C)c1ccc(C(=O)NN=Cc2c3ccccc3cc3ccccc23)cc1` [Compound 6, N′-(Anthracen-9-ylmethylene)-4-(tert-butyl)benzohydrazide] was run?
The IC50 was 13.3 ± 0.58 µM.

`CC(C)(C)c1ccc(C(=O)NN=Cc2cc(C(C)(C)C)c(O)c(C(C)(C)C)c2)cc1` [Compound 16, 4-(Tert-butyl)-N′-(3,5-di-tert-butyl-4-hydroxybenzylidene)benzohydrazide] was tested. Which IC50 did it give?
Its IC50 is 79 ± 7.53 µM.

`COc1ccc(Br)cc1C=NNC(=O)c1ccc(C(C)(C)C)cc1` [Compound 7, N′-(5-Bromo-2-methoxybenzylidene)-4-(t-But)benzohydrazide] was tested. Which IC50 did it give?
Its IC50 is 64.5 ± 3.97 µM.

For `CC(C)(C)c1ccc(C(=O)NN=Cc2ccc(O)c(O)c2)cc1` [Compound 8, N′-(3,4-Dihydroxybenzylidene)-4-tert-butylbenzohydrazide], which IC50 is on record?
Its IC50 is 80 ± 7.43 µM.

For `COc1cc(C=NNC(=O)c2ccc(C(C)(C)C)cc2)cc(OC)c1OC` [Compound 13, 4-(Tert-butyl)-N′-(3,4,5-trimethoxybenzylidene)benzohydrazide], which IC50 is on record?
The IC50 was 80.9 ± 7.43 µM.

For `CC(C)(C)c1ccc(C(=O)N/N=C/c2ccc(Cl)c(O)c2Cl)cc1` [Compound 22], which IC50 is on record?
Its IC50 is 38.6 ± 11.5 µM.

`COc1ccc(C=NNC(=O)c2ccc(C(C)(C)C)cc2)c(OC)c1OC` [Compound 9, N′-(2,3,4-Trimethoxybenzylidene)-4-tert-butylbenzohydrazide] was tested. Which IC50 did it give?
Its IC50 is 63.5 ± 3.97 µM.

Which IC50 does the source give for `CCOc1ccc(C=NNC(=O)c2ccc(C(C)(C)C)cc2)c(OC)c1` [Compound 11, 4-(Tert-butyl)-N′-(4-ethoxy-2-methoxybenzylidene)benzohydrazide] here?
The IC50 was 63.5 ± 2.97 µM.

For `CC(C)(C)c1ccc(C(=O)N/N=C/c2cc(C(C)(C)C)cc(C(C)(C)C)c2O)cc1` [Compound 26, 4-(t-But)-N′-(3,5-Di-tert-butyl-2-hydroxybenzylidene)benzohydrazide], which IC50 is on record?
The IC50 was 49.5 ± 12.7 µM.

Which IC50 does the source give for `COc1cc(C=NNC(=O)c2ccc(C(C)(C)C)cc2)ccc1O` [Compound 23] here?
Its IC50 is 252 ± 6.82 µM.

For `CN(C)c1ccc(C=NNC(=O)c2ccc(C(C)(C)C)cc2)cc1` [Compound 14, 4-(Tert-butyl)-N′-(4-(dimethylamino)benzylidene)benzohydrazide], which IC50 is on record?
Its IC50 is 81.2 ± 7.4 µM.
